According to ChEMBL document CHEMBL6120947, “Synthesis and Antiosteoporotic Characterization of Diselenyl Maleimides: Discovery of a Potent Agent for the Treatment of Osteoporosis by Targeting RANKL” (J Med Chem, 2024):
The source made the active and inactive calls. No cut-off for these calls is given here.

Columns and labels:
[1] = Toxicity in OVX-induced osteoporosis C57BL/6 mouse model assessed as pathological change in lung at 10 mg/kg, po administered every other day for 8 weeks by H and E staining based analysis; assay type: organism-based; settings: in vivo, 1344 h
BMDM [2] = assay: Inhibition of osteoclastogenesis in M-CSF/RANKL-induced osteoclast differentiation in C57BL/6J mouse BMDM cells assessed as reduction in I-kappaB-alpha degradation at 1 uM measured upto 60 mins by Western blot analysis; assay type: functional, cell-based
BMDM [3] = assay: Inhibition of osteoclastogenesis in M-CSF/RANKL-induced osteoclast differentiation in C57BL/6J mouse BMDM cells assessed as reduction in p38 phosphorylation at 1 uM measured upto 60 mins by Western blot analysis; assay type: functional, cell-based
[4] = Toxicity in OVX-induced osteoporosis C57BL/6 mouse model assessed as pathological change in liver at 10 mg/kg, po administered every other day for 8 weeks by H and E staining based analysis; assay type: organism-based; settings: in vivo, 1344 h
MC3T3-E1 = assay: Effect on osteoblast differentiation in mouse MC3T3-E1 cells assessed as change in ALP level at 0.5 to 2 uM incubated for 7 days by inverted microscopy; assay type: functional, cell-based; settings: dose 0.5-2 µM, time 7.0 day

For O=C1C([Se]c2ccccc2)=C([Se]c2ccccc2)C(=O)N1Cc1ccccc1, the Activity [1] was “Non-toxic”, the inhibition (BMDM [2]) was “Active” and the inhibition (BMDM [3]) was “Active”. For the same molecule, the Activity [4] was “Non-toxic” and the Activity (MC3T3-E1) was “No effect”.
